Data as given in US20110092476A1, “Bicycloheteroaryl compounds as P2X7 modulators and uses thereof” (Renovis, Inc., priority 2006, published 2011).
Converted amounts (≈) assume the structure as drawn. Read-outs that look alike come from different tables or passages of the source.

How the values were obtained:
[1] = Pharmacokinetic evaluation following intravenous and oral administration in rats (oral bioavailability); type: in vivo, rat; conditions: male Sprague-Dawley rats, PO 1 to 5 mg/kg vs IV 1 mg/kg, AUCinf dose-normalized
Description: Male Sprague-Dawley rats are acclimatized for at least 24 hours prior to experiment initiation. During acclimation period, all animals receive food and water ad libitum. However, food but not water is removed from the animal's cages at least 12 hours before initiation of the experiment. During the first 3 hours of experimentation, the animals receive only water ad libitum. At least three animals each are tested for intravenous and oral dosage. For intravenous formulation, compounds were dissolved (0.25 to 1 mg/mL) in a mixture of 3% dimethyl sulfoxide, 40% PEG 400 and the rest percentage of 40% Captisol in water (w/v). The animals are weighed before dosing. The determined body weight is used to calculate the dose volume for each animal.
Dose volume (mL/kg)=1 mg/kg/formulation concentration (mg/mL)
In instances where the formulation concentrations were less than 0.5 mg/mL, the dosing volume is about 2 mL/kg.
PO rats are typically dosed through oral gavage following the same dose volume formula as IV to achieve a dose level of 1 to 5 mg/kg. […] About 250 uL of blood is obtained at each time point from the animal. Equal volumes of 0.9% normal saline are replaced to prevent dehydration. The whole blood samples are maintained on ice until centrifugation. Blood samples are then centrifuged at 14,000 rpm for 10 minutes at 4° C. and the upper plasma layer transferred into a clean vial and stored at −80° C. The resulting plasma samples are then analyzed by liquid chromatography-tandem mass spectrometry. Following the measurement of plasma samples and dosing solutions, plasma concentration-time curve is plotted. Plasma exposure is calculated as the area under the concentration-time curve extrapolated to time infinite (AUinf). The AUCinf is averaged and the oral bioavailability (% F) for individual animal is calculated as:
AUCinf (PO)/AUCinf (IV), normalized to their respective dose levels. The % F is reported as the mean % F of all animals dosed orally with the compound of the invention at the specified level (see Table 4 below).
For the purpose of Table 4, oral bioavailability of each compound is expressed as follows: […]

P2X7 receptor = target: T1, P2X7 receptor (Homo sapiens, UniProt Q99572); assay: IL-1β release assay in differentiated THP-1 cells stimulated with BzATP (Example 9); type: cell-based
T1 construct: host or cells: THP-1 cells differentiated with LPS and IFN-γ
T1 sequence (Q99572 1-595): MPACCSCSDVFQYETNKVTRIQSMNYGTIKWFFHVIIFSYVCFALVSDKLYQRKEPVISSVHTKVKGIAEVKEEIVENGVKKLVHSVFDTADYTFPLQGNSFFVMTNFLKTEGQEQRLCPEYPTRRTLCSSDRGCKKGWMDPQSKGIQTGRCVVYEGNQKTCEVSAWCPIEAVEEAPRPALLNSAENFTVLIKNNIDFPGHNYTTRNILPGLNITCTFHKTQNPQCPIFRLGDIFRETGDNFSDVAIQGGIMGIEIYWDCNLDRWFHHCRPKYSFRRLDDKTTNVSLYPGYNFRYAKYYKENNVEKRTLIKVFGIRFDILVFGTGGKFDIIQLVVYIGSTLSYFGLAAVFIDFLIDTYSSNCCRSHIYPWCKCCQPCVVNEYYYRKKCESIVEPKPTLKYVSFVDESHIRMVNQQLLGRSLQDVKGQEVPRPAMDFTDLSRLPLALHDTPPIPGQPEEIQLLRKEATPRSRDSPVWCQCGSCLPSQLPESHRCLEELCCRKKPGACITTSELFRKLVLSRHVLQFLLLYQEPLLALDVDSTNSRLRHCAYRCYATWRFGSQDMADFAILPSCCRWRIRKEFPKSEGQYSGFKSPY
Outline: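 THP-1 cells differentiated 16 h with 100 ng/mL LPS and 100 ng/mL IFN-γ, primed 2 h with fresh LPS, pretreated 30 min with compound, then stimulated 45 min with 250 uM BzATP (final). Supernatant IL-1β measured by ELISA; background-adjusted percent inhibition fitted to a four-parameter logistic for IC50.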

[2] = Half-life in human liver microsomes (HLM); conditions: pH 7.4
Description: Test compounds (1 μM) are incubated with 3.3 mM MgCl2 and 0.78 mg/mL HLM (HL101) in 100 mM potassium phosphate buffer (pH 7.4) at 37° C. on the 96-deep well plate. The reaction mixture is split into two groups, a non-P450 and a P450 group. NADPH is only added to the reaction mixture of the P450 group. An aliquot of samples of P450 group is collected at 0, 10, 30, and 60 min time point, where 0 min time point indicated the time when NADPH is added into the reaction mixture of P450 group. […] Collected aliquots are extracted with acetonitrile solution containing an internal standard. […] The compound concentration in supernatant is measured by LC/MS/MS system.
The half-life value is obtained by plotting the natural logarithm of the peak area ratio of compounds/internal standard versus time. The slope of the line of best fit through the points yields the rate of metabolism (k). This is converted to a half-life value using following equations:

[3] = Determination of aqueous (kinetic) solubility; type: physicochemical; conditions: aqueous buffer, kinetic from dmso stock, buffer pH 7.4
Description: The mixture was vortexed for 1 hour and equilibrated overnight at room temperature. The mixture was filtered through a saturated filter and the filtrate was analyzed by LC/MS/MS.
For the purpose of Table 5, solubility of each compound is expressed as follows: […]

[4] = 0.3 μM compound, differentiated THP-1 cells, BzATP 250 uM, "+" symbols, read-out: IL-1β % Inhib. @ 0.3 or 0.1 uM
[5] = 0.3 μM compound (symbols +), differentiated THP-1 cells, BzATP 250 uM, read-out: IL-1β % Inhib. @ 0.3 or 0.1 uM

SMILES	Oral Bioavailability F (%) [1]	inhibition at 0.3 µM (P2X7 receptor; [4]) [%]	half-life at 1 μM [2] [h]	solubility [3] [µM]	inhibition at 0.3 µM (P2X7 receptor; [5]) [%]	inhibition at 0.3 µM (P2X7 receptor; THP-1, read-out: IL-1β % Inhib. @ 0.3 or 0.1 uM) [%]
C[C@H](C(N)=O)n1ccc2c(NC(=O)Cc3ccc(Cl)cc3F)cccc2c1=O [Compound 290]	+ (0-25% F)	> 76	1.64	–	–	–
O=C(Cc1ccc(F)c(C(F)(F)F)c1)Nc1c(Cl)ccc2c(=O)n(CCO)ccc12 [Compound 386, N-[6-Chloro-2-(2-hydroxy-ethyl)-1-oxo-1,2-dihydro-isoquinolin-5-yl]-2-(4-fluoro-3-trifluoromethyl-phenyl)-acetamide]	+ (0-25% F)	–	1.08	< 25	–	> 76
C[C@H](C(N)=O)n1ccc2c(NC(=O)Cc3ccc(Cl)cc3)cccc2c1=O [Compound 256]	+ (0-25% F)	> 76	1.29	< 25	–	–
C[C@H](CO)n1ccc2c(NC(=O)Cc3ccc(Cl)c(F)c3)c(Cl)ccc2c1=O [Compound 382]	+++ (51-75% F)	> 76	1.34	–	–	–
CC(C(=O)Nc1cccc2c(=O)n([C@H](C)C(N)=O)ccc12)c1ccc(Cl)cc1 (stereo partly shown) [Compound 247]	++ (26-50% F)	> 76	2.11	–	–	–
CC(C(=O)Nc1cccc2c(=O)n([C@H](C)C(N)=O)ccc12)c1cccc(C(F)(F)F)c1F (stereo partly shown) [Compound 337]	–	> 76	–	< 25	–	–
O=C(Cc1ccc(Cl)c(Cl)c1)Nc1cccc2c(=O)n(CCO)ccc12 [Compound 8]	+ (0-25% F)	–	1.41	–	> 76	–
O=C(Cc1ccc(Cl)cc1)Nc1cccc2c(=O)n(CCO)ccc12 [Compound 4]	++++ (>75% F)	–	1.97	–	26 to 50	–
C[C@H](C(N)=O)n1ccc2c(NC(=O)[C@H](C)c3ccc(Cl)cc3)cccc2c1=O [Compound 262]	–	> 76	–	> 75	–	–
C[C@H](CO)n1ccc2c(NC(=O)[C@H](C)c3ccc(Cl)c(Cl)c3)cccc2c1=O [Compound 320]	–	> 76	–	51 to 75 (≈ 21.4 to 31.4 µg/mL)	–	–
O=C(Cc1ccc(C(F)(F)F)cc1)Nc1cccc2c(=O)n(CCO)ccc12 [Compound 7]	–	–	–	< 25	26 to 50	–
C[C@H](C(N)=O)n1ccc2c(NC(=O)Cc3cccc(C(F)(F)F)c3F)c(Cl)ccc2c1=O [Compound 342]	+ (0-25% F)	> 76	1.16	–	–	–
O=C(Cc1ccc(Cl)c(C(F)(F)F)c1)Nc1cccc2c(=O)n(C[C@@H]3CCCN3)ccc12 [Compound 232, 2-(4-Chloro-3-trifluoromethyl-phenyl)-N-(1-oxo-2-(S)-1-pyrrolidin-2-ylmethyl-1,2-dihydro-isoquinolin-5-yl)-acetamide]	–	> 76	7.37	–	–	–
C[C@@H](C(=O)Nc1cccc2c(=O)n([C@@H](C)C(N)=O)ccc12)c1ccc(Cl)cc1 [Compound 266]	–	> 76	–	> 75	–	–
C[C@@H](C(N)=O)n1ccc2c(NC(=O)Cc3ccc(Cl)c(Cl)c3)cccc2c1=O [Compound 236, (S)-2-{5-[2-(3,4-Dichloro-phenyl)-acetylamino]-1-oxo-1H-isoquinolin-2-yl}-propionamide]	+ (0-25% F)	> 76	0.97	–	–	–

Second part, led by results:

Oral Bioavailability F (%) [1]	inhibition at 0.3 µM (P2X7 receptor; [4]) [%]	half-life at 1 μM [2] [h]	solubility [3] [µM]	inhibition at 0.3 µM (P2X7 receptor; [5]) [%]	SMILES	inhibition at 0.3 µM (P2X7 receptor; THP-1, read-out: IL-1β % Inhib. @ 0.3 or 0.1 uM) [%]
+ (0-25% F)	> 76	3.35	< 25	–	C[C@H](C(N)=O)n1ccc2c(NC(=O)Cc3ccc(C(F)(F)F)cc3)cccc2c1=O [Compound 298]	–
+++ (51-75% F)	> 76	1.22	–	–	C[C@H](CO)n1ccc2c(NC(=O)Cc3ccc(C(F)(F)F)cc3)cccc2c1=O [Compound 319]	–
+ (0-25% F)	> 76	0.55	–	–	CC(C)(CO)n1ccc2c(NC(=O)Cc3ccc(Cl)c(C(F)(F)F)c3)cccc2c1=O [Compound 369, 2-(4-Chloro-3-trifluoromethyl-phenyl)-N-[2-(2-hydroxy-1,1-dimethyl-ethyl)-1-oxo-1,2-dihydro-isoquinolin-5-yl]-acetamide]	–
++++ (>75% F)	> 76	3.15	–	–	C[C@H](CO)n1ccc2c(NC(=O)Cc3ccc(C(F)(F)F)cc3)c(Cl)ccc2c1=O [Compound 364]	–
++ (26-50% F)	> 76	1.24	–	–	C[C@H](C(N)=O)n1ccc2c(NC(=O)Cc3cccc(C(F)(F)F)c3F)cccc2c1=O [Compound 285]	–
+ (0-25% F)	> 76	1.59	–	–	C[C@H](C(N)=O)n1ccc2c(NC(=O)Cc3ccc(Cl)c(C(F)(F)F)c3)cccc2c1=O [Compound 238, (R)-2-{5-[2-(4-Chloro-3-trifluoromethyl-phenyl)-acetylamino]-1-oxo-1H-isoquinolin-2-yl}-propionamide]	–
–	> 76	–	< 25	–	C[C@H](C(N)=O)n1ccc2c(NC(=O)Cc3ccc(F)c(C(F)(F)F)c3)cccc2c1=O [Compound 304]	–
–	> 76	–	> 75	–	C[C@H](CO)n1ccc2c(NC(=O)Cc3ccc(C(F)(F)F)cc3C(F)(F)F)cccc2c1=O [Compound 361]	–
++ (26-50% F)	> 76	0.97	–	–	C[C@H](CO)n1ccc2c(NC(=O)Cc3ccc(Cl)c(C(F)(F)F)c3)cccc2c1=O [Compound 362]	–
–	> 76	–	26 to 50 (≈ 11.7 to 22.6 µg/mL)	–	C[C@@H](C(N)=O)n1ccc2c(NC(=O)Cc3ccc(Cl)cc3C(F)(F)F)cccc2c1=O [Compound 237, (S)-2-{5-[2-(4-Chloro-2-trifluoromethyl-phenyl)-acetylamino]-1-oxo-1H-isoquinolin-2-yl}-propionamide]	–
–	> 76	0.9	> 75	–	NC(=O)[C@H](CO)n1ccc2c(NC(=O)Cc3ccc(Cl)c(C(F)(F)F)c3)cccc2c1=O [Compound 250, (S)-2-{5-[2-(4-Chloro-3-trifluoromethyl-phenyl)-acetylamino]-1-oxo-1H-isoquinolin-2-yl}-3-hydroxy-propionamide]	–
–	> 76	–	> 75	–	C[C@H](CO)n1ccc2c(NC(=O)Cc3ccc(Cl)c(Cl)c3)cccc2c1=O [Compound 333, 2-(3,4-Dichloro-phenyl)-N-[2-((R)-2-hydroxy-1-methyl-ethyl)-1-oxo-1,2-dihydro-isoquinolin-5-yl]-acetamide]	–
–	> 76	–	< 25	–	C[C@H](C(N)=O)n1ccc2c(NC(=O)Cc3ccc(C(F)(F)F)c(F)c3)cccc2c1=O [Compound 306]	–
